Test results as given in US12702712B2, “Enteroendocrine cell-targeting polymer substance conjugated with photosensitizer, and medical use thereof for ameliorating metabolic disease” (The Catholic University of Korea Industry-Academic …, priority 2020, dated 2026).

Columns and labels:
GIP = assay: Plasma GIP by ELISA after photodynamic therapy; type: in vivo, C57BL6 mice; settings: high-fat diet mice, oral 10 mg/kg (based on chlorin e6), after 22 days; for plasma GIP concentration, administration+light irradiation: laser 0.7 J/cm^2, repeated after 4 days; for plasma GIP concentration, administration only: no light
Procedure: (§1) After 4 days, photodynamic therapy was performed once again by the same method, and then, mouse blood was collected after 22 days. Plasma was isolated from blood to measure the concentrations of GIP (Merk Millipore, USA) and insulin (anti-insulin+pro insulin antibody (10 μg/ml, ab8304, Abcam)) by enzyme-linked immunosorbent assay (ELISA).

insulin = assay: Plasma insulin by ELISA after photodynamic therapy; type: in vivo, C57BL6 mice; settings: high-fat diet mice, oral 10 mg/kg (based on chlorin e6), after 22 days; for plasma insulin concentration, administration+light irradiation: laser 0.7 J/cm^2, repeated after 4 days; for plasma insulin concentration, administration only: no light
Procedure: as §1

[1] = Dispersion in aqueous phase; type: physicochemical; settings: water
[2] = tested on: canine kidney cells (MDCK); assay: Cytotoxicity and phototoxicity, MTT test; settings: 0.25 to 10 μg/ml (based on chlorin e6), no light
Procedure: (§3) Human duodenal cells (HUTU-80) and canine kidney cells (MDCK) were aliquoted at a density of 1×10^4 cells/well in 0.2 ml portions in each well of a 96-well plate and cultured under conditions of 37° C. and 5% CO2 for 24 hours. On the next day, each well was treated with OA-PEG-Ce6 or polyethylene glycol-chlorin e6 at a concentration of 0.25 to 10 μg/ml (based on chlorin e6), and the corresponding treatment was performed by dividing a light non-irradiation group and a light irradiation group (irradiated with a laser with a wavelength of 671 nm at an intensity of 2 J/cm^2). Thereafter, cell viability was confirmed by the MTT test method.

[3] = tested on: Human duodenal cells (HUTU-80); assay: Cytotoxicity and phototoxicity, MTT test; settings: for treatment concentration at which cell viability decreased, light irradiation group: laser 671 nm, 2 J/cm^2, concentration based on chlorin e6
Procedure: as §3

[4] = Obesity amelioration: body weight and fat mass after photodynamic therapy; type: in vivo, C57BL6 mice; settings: high-fat diet mice, oral 10 mg/kg (based on chlorin e6), 22 days; for body weight, last day relative to before therapy, administration+light irradiation / fat mass, last day relative to before therapy, administration+light irradiation: laser 0.7 J/cm^2, repeated after 4 days; for fat mass, last day relative to before therapy, administration+light irradiation / fat mass, last day relative to before therapy, administration only: EchoMRI; for body weight, last day relative to before therapy, administration only / fat mass, last day relative to before therapy, administration only: no light
Procedure: After 4 days, photodynamic therapy was performed once again by the same method, and then, changes in body weight and fat mass were measured every other day for 22 days. The experimental results were shown in a bar graph by dividing the body weight and fat mass on the last day of the experiment by the body weight and fat mass before the photodynamic therapy and then converting the obtained values into percentages. Fat mass was measured with EchoMRI-500 (Echo MRI, Houston, TX).

[5] = mouse, in vivo, po, 10 mg/kg
Procedure: C57BL6 mice were fed a high-fat diet for 8 weeks to induce obese and diabetic conditions, and were divided into a control (PBS), a light irradiation group (Laser), a polyethylene glycol-chlorin e6 adiministration group (PC), a polyethylene glycol-chlorin e6 adiministration+light irradiation group (PCL), an OA-PEG-Ce6 adiministration group (OPC) and an OA-PEG-Ce6 adiministration+light sirradiation group (OPCL). Each group was orally administered the treated substance at a concentration of 10 mg/kg (based on chlorin e6), and after 30 minutes, a catheter was injected for endoscopic access and a laser was irradiated through the mouth.
Meanwhile, the accumulation degree of photosensitizer in the removed duodenum was confirmed with a fluorescence-labeled organism bioimaging instrument (Neo Science), and the fluorescence intensity of each tissue was graphically shown.

[6] = tested on: canine kidney epithelial cells (MDCK); assay: Intracellular distribution by confocal laser scanning microscopy; type: cell-based; settings: 2 μg/ml (based on chlorin e6), 1 hour; CLSM
Procedure: (§2) Human duodenal cells (HUTU-80) and canine kidney epithelial cells (MDCK) were treated with OA-PEG-Ce6 and polyethylene glycol-chlorin e6 at a concentration of 2 μg/ml (based on chlorin e6) for 1 hour. Thereafter, the cells were washed three times with DPBS and fixed with 4% paraformaldehyde, and the cell nuclei were stained at 4° C. Thereafter, cell images were confirmed under a confocal laser scanning microscope (CLSM).

[7] = tested on: Human duodenal cells (HUTU-80); assay: as above; type: cell-based; settings: 2 μg/ml (based on chlorin e6), 1 hour; CLSM
Procedure: as §2

[8] = tested on: Human duodenal cells (HUTU-80); assay: Intracellular uptake by flow cytometry; type: cell-based; settings: 2 μg/ml (based on chlorin e6), 1 hour and 4 hours
Procedure: Thereafter, the cells were treated with OA-PEG-Ce6 and polyethylene glycol-chlorin e6 as a comparative group at a concentration of 2 μg/ml (based on chlorin e6) for 1 hour and 4 hours, respectively. Thereafter, the cells were washed three times with DPBS, collected, and analyzed by a flow cytometer (BD FACSCanto II).

[9] = tested on: Human duodenal cells (HUTU-80); assay: Competitive inhibition of uptake in presence of fatty acid (flow cytometry); type: cell-based; settings: 10 μg/ml (based on chlorin e6) with 0.10 to 10.00 mg/ml oleylethanolamine, 2 hours
Procedure: Thereafter, the cells were treated with both 0.10 to 10.00 mg/ml oleylethanolamine and 10 μg/ml OA-PEG-Ce6 (based on chlorin e6) and cultured for 2 hours. Thereafter, the cells were washed three times with DPBS, collected, and analyzed by a flow cytometer (BD FACSCanto II).

[10] = tested on: Human duodenal cells (HUTU-80)
Procedure: as §3

[11] = target: T1, HEK-293 cells expressing GPR119 (Homo sapiens, UniProt Q8TDV5); assay: Uptake according to GPR119 expression level (flow cytometry); type: cell-based; settings: GPR119 expression vector 0, 4 and 8 μg, 2 μg/ml (based on chlorin e6)
T1 construct: expressed in transfected cells; host or cells: HEK-293
T1 sequence (Q8TDV5 1-335): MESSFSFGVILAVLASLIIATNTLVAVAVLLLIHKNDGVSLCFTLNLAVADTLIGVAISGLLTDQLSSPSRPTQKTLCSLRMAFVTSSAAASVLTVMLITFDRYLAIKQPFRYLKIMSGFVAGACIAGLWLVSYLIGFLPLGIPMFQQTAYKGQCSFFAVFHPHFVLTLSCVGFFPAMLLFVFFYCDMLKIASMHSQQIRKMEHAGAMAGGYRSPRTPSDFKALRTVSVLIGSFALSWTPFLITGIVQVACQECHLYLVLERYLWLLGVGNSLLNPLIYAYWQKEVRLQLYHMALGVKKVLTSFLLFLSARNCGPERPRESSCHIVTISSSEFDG
Procedure: In order to confirm the mechanism by which OA-PEG-Ce6 targets enteroendocrine cells, human fetal kidney cells (HEK-293) expressing G protein-coupled receptor 119 (GPR119), which is a receptor known to recognize fatty acids, were produced.
After 24 hours, a GPR119 expression vector (0, 4 and 8 μg) and polyethyleneimine (PEI) were added to a serum-free medium and mixed for 30 minutes so as to form a complex, and then each cell was treated with the complex for 4 hours. Thereafter, the medium was replaced with a medium containing bovine serum, and GPR119 was allowed to be expressed by culturing the cells for 48 hours. It was confirmed by western blotting whether GPR119 was expressed.
HEK-293 cells expressing GPR119 were treated with OA-PEG-Ce6 and polyethylene glycol-chlorin e6 as a comparative group at a concentration of 2 μg/ml (based on chlorin e6) for 1 hour and 4 hours, respectively. Thereafter, the cells were washed three times with DPBS, collected, and analyzed by a flow cytometer (BD FACSCanto II).

[12] = tested on: Human duodenal cells (HUTU-80); assay: Intracellular active oxygen formation (DCFDA, confocal microscope); type: cell-based; settings: 2 μg/ml (based on chlorin e6), 2 hours, light 0, 0.5, 1 and 1.5 J/cm^2, increasing intensity
Procedure: Thereafter, the cells were treated with OA-PEG-Ce6 at a concentration of 2 μg/ml (based on chlorin e6) for 2 hours, and washed three times with DPBS. The cells were treated with DCFDA diluted in DPBS, cultured for 30 minutes, and further washed three times with DPBS. The cells were irradiated with a light with an intensity of 0, 0.5, 1 and 1.5 J/cm^2 to induce a reaction between DCFDA incorporated into the cells and singlet oxygen. Fluorescence appears when the two substances react. Thereafter, the cells were fixed with 4% paraformaldehyde, the cell nuclei were stained with DAPI, and images were confirmed under a confocal microscope.

[13] = Singlet oxygen formation in aqueous phase (SOSG fluorescence, laser irradiation); settings: 5 μg/mL in aqueous phase with SOSG; laser 670 nm, 4 J/cm^2, 20 mW/cm^2, 200 seconds
Procedure: Singlet oxygen sensor green (SOSG), which is a fluorescent detecting substance that directly reacts with singlet oxygen, was dispersed in an aqueous phase, oleic acid-polyethylene glycol-chlorin e6 (5 μg/mL) was added thereto, and the resulting mixture was mixed. As a comparative example, chlorin e6 (5 μg/mL) or polyethylene glycol-chlorin e6 (5 μg/mL) was used. When OA-PEG-Ce6 and SOSG coexisted in the aqueous phase, the mixture was irradiated with a laser (670 nm) (4 J/cm^2, 20 mW/cm^2, 200 seconds), and the degree of fluorescence was measured by an RF analyzer.

Compound | plasma GIP concentration, administration+light irradiation (GIP) | plasma GIP concentration, administration only (GIP) | plasma insulin concentration, administration+light irradiation (insulin) | plasma insulin concentration, administration only (insulin) | dispersion in the aqueous phase [1] | treatment concentration at which cell viability decreased, light irradiation group [3] | body weight, last day relative to before therapy, administration+light irradiation [4] | fat mass, last day relative to before therapy, administration+light irradiation [4] | body weight, last day relative to before therapy, administration only [4] | fat mass, last day relative to before therapy, administration only [4] | further results
polyethylene glycol-chlorin e6 [reference compound] | 339.6 pg/mL | 289.1 pg/mL | 374.3 pg/mL | 304.3 pg/mL | well dispersed in water | ≥ 2.5 µg/mL | 90.1% | 60.0% | 93.1% | 68.4% | change in cell viability, light non-irradiation group [2]: no change in the cell viability; change in cell viability, light non-irradiation group ([3]; 0.25 to 10 μg/ml (based on chlorin e6), no light): almost no change in cell viability
oleic acid-polyethylene glycol-chlorin e6 [OA-PEG-Ce6] | 177.7 pg/mL | 435.5 pg/mL | 758.0 pg/mL | 210.5 pg/mL | well dispersed in water | ≥ 0.5 µg/mL | 83.6% | 47.2% | 91.1% | 62.8% | accumulation degree of photosensitizer in the duodenum [5]: remarkably large amount of photosensitizer was accumulated; incorporation into HUTU-80 versus MDCK cells [6]: more incorporated into human duodenal cells (HUTU-80) than in canine kidney epithelial cells (MDCK); incorporation into cells versus conjugate without targeting substance [7]: more incorporated into cells than polyethylene glycol-chlorin e6 (PC); amount absorbed by the cells [8]: more absorbed by the cells than polyethylene glycol-chlorin e6 (PC); intracellular uptake (fluorescence intensity) with increasing oleylethanolamine [9]: intracellular uptake was reduced; concentration at which cell viability decreased, light non-irradiation group [10]: ≥ 2500 ng/mL; intracellular accumulation rate with increasing GPR119 expression [11]: partially increased; intracellular active oxygen generation (DCFDA green fluorescence) [12]: generated a large amount of active oxygen
C=Cc1c(C)c2cc3nc(c(CC(=O)O)c4[nH]c(cc5nc(cc1[nH]2)C(C)=C5CC)c(C)c4C(=O)O)[C@@H](CCC(=O)O)[C@@H]3C [chlorin e6] |  |  |  |  | could not be dispersed in the aqueous phase |  |  |  |  |  | ability to form active oxygen (singlet oxygen) [13]: could hardly form active oxygen
